Results published in PubChem BioAssay AID743457 (The Scripps Research Institute Molecular Screening Center, 2014).
Calls of active or inactive are those of the source.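 Rule for the calls: active = IC50 at or below a set limit; inactive = IC50 above that limit.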

Molecular target: Group 3 secretory phospholipase A2 (Homo sapiens) (UniProt Q9NZ20)
Test: human group III sPLA2 inhibitors, dose response, biochemical, QFRET, IC50 (AID 743457)
Details: recombinant hGIII-sPLA2, BODIPY PC-A2 QFRET fluorescence

Sequence of Group 3 secretory phospholipase A2 (Homo sapiens) (Q9NZ20 whole entry, looked up): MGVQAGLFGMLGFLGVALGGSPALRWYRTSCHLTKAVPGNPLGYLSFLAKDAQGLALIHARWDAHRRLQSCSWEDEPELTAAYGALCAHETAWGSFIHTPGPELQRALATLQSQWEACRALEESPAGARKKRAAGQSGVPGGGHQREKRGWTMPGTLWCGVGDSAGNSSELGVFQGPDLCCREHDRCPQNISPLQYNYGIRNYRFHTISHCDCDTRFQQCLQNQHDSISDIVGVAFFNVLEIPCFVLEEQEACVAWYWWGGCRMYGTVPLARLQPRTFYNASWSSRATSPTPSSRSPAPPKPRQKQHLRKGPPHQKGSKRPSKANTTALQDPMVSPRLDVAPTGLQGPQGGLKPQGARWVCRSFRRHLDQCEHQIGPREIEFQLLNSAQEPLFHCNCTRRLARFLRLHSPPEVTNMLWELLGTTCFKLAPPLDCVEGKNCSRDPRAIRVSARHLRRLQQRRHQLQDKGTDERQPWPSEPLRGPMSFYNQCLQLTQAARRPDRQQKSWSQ

SMILES: C=CCS/C(N)=N\N=C\c1cc(Br)cc([N+](=O)[O-])c1O
- IC50: > 40.6 µM (inactive)

SMILES: O=[N+]([O-])c1ccc(O)c(N=Cc2sc3ccccc3c2O)c1
- IC50: > 122 µM (inactive)

SMILES: CCCC[n+]1c2ccccc2cc2ccccc21
- IC50: inactive

SMILES: CCC(C)N1C(=O)/C(=C\c2cc3c4c(c2)CCCN4CCC3)C(=O)NC1=S (stereo not drawn)
- IC50: inactive

SMILES: COc1ccc(C(=O)NC(=S)NNC(=O)c2c(-c3ccccc3)noc2C)cc1OC
- IC50: > 122 µM (inactive)

SMILES: COc1ccc2nc(Nc3nc4cc5c(cc4s3)OCO5)sc2c1
- IC50: inactive

SMILES: Cc1ccc2sc(NNC(=O)c3ccc4c(c3)OCCO4)nc2c1C
- IC50: inactive

SMILES: O=C(CCN1C(=O)/C(=C/c2ccccc2Cl)SC1=S)NNC(=O)c1ccccc1O
- IC50: inactive

SMILES: COc1ccc(C(=O)NNC(=S)NC(=O)c2cccs2)cc1
- IC50: inactive

SMILES: CC(C)CC(=O)NC(=S)NNC(=O)c1ccc(NC(=O)C2CCCCC2)cc1
- IC50: > 122 µM (inactive)

SMILES: CNC(=S)NN=C(C)c1ccc(OC)cc1O
- IC50: > 122 µM (inactive)

SMILES: CNC(=S)N/N=C/c1cc(Br)cc(Br)c1O
- IC50: > 122 µM (inactive)

SMILES: CC(C)(C)c1csc(NNC(=O)c2ccc(Br)cc2)n1
- IC50: > 122 µM (inactive)

SMILES: O=C(N/N=C/c1cc(Cl)cc([N+](=O)[O-])c1O)C(O)(c1ccccc1)c1ccccc1
- IC50: inactive

SMILES: O=C1c2ccccc2C(=O)c2c(NCCCN(CCO)CCO)cccc21
- IC50: > 122 µM (inactive)

SMILES: Cc1ccccc1C(=O)NNC(=S)NC(=O)c1cccs1
- IC50: > 40.6 µM (inactive)

SMILES: C/C(=N\NC(=S)NCC(C)(C)C)c1cc(F)cc(F)c1O
- IC50: > 122 µM (inactive)

SMILES: C/C(=N\NC(=O)c1nnn(-c2nonc2N)c1CN(C)c1ccccc1)c1ccccc1O
- IC50: inactive
